Assay results from BindingDB's records for PubMed 38714043 (Sichuan University).

Target: T1, Tyrosine-protein kinase receptor UFO (Homo sapiens, UniProt P30530)
T1 sequence (P30530 whole entry): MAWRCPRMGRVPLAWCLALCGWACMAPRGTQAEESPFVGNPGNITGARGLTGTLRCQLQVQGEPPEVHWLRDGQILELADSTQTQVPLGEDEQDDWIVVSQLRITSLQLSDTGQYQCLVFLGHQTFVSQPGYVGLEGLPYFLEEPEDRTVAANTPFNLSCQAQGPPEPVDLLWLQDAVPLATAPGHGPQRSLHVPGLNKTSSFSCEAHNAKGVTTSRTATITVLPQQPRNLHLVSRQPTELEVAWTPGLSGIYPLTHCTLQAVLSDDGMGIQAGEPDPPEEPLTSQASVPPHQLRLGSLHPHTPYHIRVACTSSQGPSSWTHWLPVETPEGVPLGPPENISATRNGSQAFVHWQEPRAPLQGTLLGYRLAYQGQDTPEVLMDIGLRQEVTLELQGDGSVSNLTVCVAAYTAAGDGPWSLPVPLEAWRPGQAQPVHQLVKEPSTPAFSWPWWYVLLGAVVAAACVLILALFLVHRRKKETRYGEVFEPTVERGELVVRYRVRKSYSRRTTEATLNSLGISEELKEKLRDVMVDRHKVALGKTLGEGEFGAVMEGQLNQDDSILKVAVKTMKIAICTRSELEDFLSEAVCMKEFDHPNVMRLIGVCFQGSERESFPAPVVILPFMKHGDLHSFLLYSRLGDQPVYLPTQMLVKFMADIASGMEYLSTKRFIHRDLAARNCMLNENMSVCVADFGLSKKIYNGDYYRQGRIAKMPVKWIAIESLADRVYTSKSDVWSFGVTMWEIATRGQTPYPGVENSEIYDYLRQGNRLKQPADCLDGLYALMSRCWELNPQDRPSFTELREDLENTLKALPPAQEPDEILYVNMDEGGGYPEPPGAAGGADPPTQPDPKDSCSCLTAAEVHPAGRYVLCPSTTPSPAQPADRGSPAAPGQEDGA
Test: Inhibition of AXL (unknown origin)

IC50: 44 nM
SMILES: COc1cc2ncnc(Oc3ccc(NC(=O)c4c5n(n(-c6ccccc6)c4=O)CCCC5)cc3)c2cc1OC
